This is an account of results in patent US20090155187A1, “DRUG FOR INHIBITING VASCULAR INTIMAL HYPERPLASIA” (Nissan Chemical Industries Ltd., priority 2004, published 2009).

This test relates to rat femoral arteries (intimal hyperplasia). The experiment in a line: Intimal hyperplasia in rat femoral arteries formed by photosensitization (rose bengal and green light). The class given is in vivo, Wistar rat. The following applies: left femoral artery, vs solvent group. How it is done: Under intraperitoneal anesthesia with pentobarbital (50 mg/mL/kg), a catheter was placed in the left cervical vein of a Wistar rat. The left femoral artery was detached, and the probe of an ultrasonic pulse Doppler blood flowmeter was placed on the artery. The artery proximal to the site of placement of the probe was irradiated with green light (540 nm, 800,000 1×) at a distance of 5 mm from the artery. A steady blood flow was confirmed after 10 minutes of start of the irradiation, and 15 mg/mL/kg of rose bengal was injected into the left cervical vein to damage the vascular endothelium. Then, the incision was sutured. Rats were divided in order as a solvent group (9 rats), a group (10 rats) to which 10 mg/kg of Compound A was administered, and a group (10 rats) to which 300 mg/kg of Cilostazol was administered. The drugs were suspended in 0.5% methylcellulose solution, adjusted so as to be administered at a dose of 5 mL/kg, and orally administered on the day of operation after confirmation of postoperative arousal, and then orally administered once a day in the morning for the subsequent three weeks. Three weeks after the operation, the left femoral artery was exposed under anesthesia. […] The medial areas and the intimal area in transverse sections of the femoral arteries were measured as indices of intimal hyperplasia with a computer image analyzer, and the ratio of the […] (the I/M ratio) was calculated. The results are expressed as average±standard deviation. The intimal areas and the I/M ratios were analyzed for distribution uniformity in each group by Bartlett's test. If the distribution was uniform, one-way analysis of variance was done, and the averages for the solvent group and the respective drug-treated groups were analyzed by Dunnett's test to determine if there was significant difference between them. When the distribution was not uniform, the Kruskal-Wallis rank test was done, and if there was significant difference between the solvent group and a drug-treated group, the average ranks for the two groups were analyzed by Dunnett's test. […]

Setting [1] is: 10 mg/kg orally once a day for three weeks, Dunnett's test p<0.05.

With `O=C1CCc2cc(OCCCCc3nnnn3C3CCCCC3)ccc2N1` [Cilostazol, reference compound], where the note is “300 mg/kg orally once a day for three weeks”, the “intimal hyperplasia inhibitory action (intimal area and I/M ratio)” value was “showed no action”.

For the compound `Cl.O=c1[nH]nc(OCCCc2ccc(Cl)cc2)c(NCc2cccnc2)c1Br` [Compound A, 4-bromo-6-[3-(4-chlorophenyl)propoxy]-5-(3-pyridylmethylamino)-3(2H)-pyridazinone hydrochloride], under setting [1], the I/M ratio entry is recorded as “significantly reduced” and the “area of the tunica intima (intimal area)” value was “significantly reduced”.
